Measured values: US20240254119A1 (THIRD HARMONIC BIO, INC., priority 2022, published 2024)

Tests used:
[1] = target: T1, BCRP (BCRP-MDCKII monolayer) (Homo sapiens, UniProt Q9UNQ0); assay: MDCKII-BCRP bidirectional transport assay; type: in vitro ADME; details: for MDCK-BCRP: Papp A-B: apical to basolateral
T1 construct: host or cells: MDCKII (canine kidney) cells
T1 sequence (Q9UNQ0 1-655): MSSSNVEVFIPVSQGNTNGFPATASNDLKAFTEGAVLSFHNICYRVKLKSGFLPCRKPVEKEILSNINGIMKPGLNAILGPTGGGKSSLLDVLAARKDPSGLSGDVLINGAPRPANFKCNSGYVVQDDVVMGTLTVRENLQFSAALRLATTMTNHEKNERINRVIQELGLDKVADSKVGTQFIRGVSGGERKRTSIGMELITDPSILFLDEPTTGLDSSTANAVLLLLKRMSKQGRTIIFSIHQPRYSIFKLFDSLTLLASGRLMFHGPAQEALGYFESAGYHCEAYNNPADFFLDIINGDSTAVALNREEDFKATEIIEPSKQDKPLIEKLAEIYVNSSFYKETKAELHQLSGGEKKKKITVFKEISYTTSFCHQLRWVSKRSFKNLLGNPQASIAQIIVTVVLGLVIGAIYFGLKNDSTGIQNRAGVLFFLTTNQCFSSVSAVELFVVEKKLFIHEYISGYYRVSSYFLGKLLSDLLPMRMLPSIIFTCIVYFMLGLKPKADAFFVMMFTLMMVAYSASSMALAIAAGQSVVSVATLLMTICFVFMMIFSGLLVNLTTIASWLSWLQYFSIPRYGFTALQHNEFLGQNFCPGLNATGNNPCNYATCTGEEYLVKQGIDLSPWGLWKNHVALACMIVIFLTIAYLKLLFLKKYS
Procedure: Exemplary compounds were tested for cell permeability in Caco-2, MDCKII-MDR1 and MDCKII-BCRP cell lines with efflux transporter engagement inferred from the efflux ratios determined. Procedures and results are described below. […] This feature of certain compounds is in part due to efflux transporter engagement. See, for instance, exemplary such compounds included in data tables below.
The reference compound Teriflunomide and test compounds are tested in the bidirectional assay. Test compound and reference compounds incubations were tested in duplicates.
The transport assay can be performed between days 12 to day 15 using ready to use PreadyPort™ BCRP-MDCKII monolayer in 96 well plate.
The medium was aspirated from the apical and basal compartments and 75 and 235 μL assay buffer was added to each of the 96 wells of apical and basal compartments of the PreadyPort™ plate.
The plates were pre-incubated for 15 min at 37° C. with 5% CO2 in humidified atmosphere. After preincubation the assay buffer was removed from the apical and basal inserts of the plate.
In apical to basolateral (A→B) transport, 75 μL of test or reference compound working solution to apical inserts and 235 μL of blank assay buffer were added to the corresponding basal compartments.
In basolateral to apical transport, 235 μL of test or reference compound working solution to the basal compartments and 75 μL of blank assay buffer solution were added to corresponding apical inserts.
The sandwich plate was incubated for 120 min in incubator at 5% CO2 and 37° C.
After incubation, 60 μL was transferred from receiver and donor compartments to collection plate.
For donor and C0 samples 20-fold dilution was accomplished by mixing 60 μL of collected sample with 1140 μL of transport buffer and from that solution aliquot 60 μL transfer Both receiver and donor samples were processed by adding […] of acetonitrile containing internal standard (60 μL of sample+240 μL of acetonitrile containing glyburide as internal standard, 125 ng/mL) and vortexing the samples. The compound concentration was measured in all samples using respective calibration standards by LC-MS/MS.
Calculate the Papp and recovery using the given formula:
[formula] [formula] • Where: dQ/dt=Permeability rate in μM/see • C0=Initial concentration in μM • A=Membrane surface area (0.33 cm^2) • V=Volume of receiver chamber • Cend, a=concentration in acceptor well at end of incubation • Cend, d=concentration in donor well at end of incubation • CHBSS=loading concentration measured in HBSS

wtKIT = target: T2, wtKIT (Homo sapiens, UniProt P10721); assay: Caliper biochemical assay, wtKIT; details: Table 6, read-out: KIT Biochemical IC50 avg
T2 construct: 1888289AM in the reaction mixtures
Procedure: Enzyme, substrate, and cofactors (ATP and Mn^2+) are combined in a well of a microtiter plate and incubated for 3 hours at 25° C. At the end of the incubation, the reaction is quenched by the addition of an EDTA-containing buffer. Substrate and product are separated electrophoretically using the microfluidic-based LabChip 3000 Drug Discovery System from Caliper Life Sciences* and quantitated by fluorescence intensity.
The substrate used in the CSF-1R and PDGFRα assay is FAM-[…]-CONH2 (FAM is carboxyfluorescein). Peptide should be >95% purity. The substrate for the KIT assay is FAM-[…]-NH2.
• 1. To a well of a 384-well plate add 5 μL of 2× enzyme buffer (or control) • 2. Add 100 nL of 100× compound. • 3. Add 5 μL of 2× substrate buffer. • 4. Incubate plate at 25° C. for 3 hours. • 5. Add 10 uL of […]. • 6. Read plate LabChip 3000 Drug Discovery System
• 3 hours at 25° C. where 100% Inhibitor: No enzyme.
• 100 mM HEPES, pH 7.5 0.1% BSA • 0.01% Triton X-100 • 1 mM DTT • 10 mM MnCl2 • 10 μM Sodium Orthovanadate • 10 μM Beta-Glycerophosphate • 400 μM ATP • 1% DMSO (from compound) • 1 μM FAM-[…]-CONH2 5.0 nM wtKIT Enzyme (1888289AM)* • *Specific activity may vary from lot to lot. Enzyme concentration may need to be adjusted to yield 10-20% conversion of substrate to product.

Kinetic solubility assay = type: physicochemical; details: kinetic solubility, 50 mM PB (pH 7.4), shaken 24 hours at RT
Outline: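 Concentration in the filtrate was determined by UPLC-UV or HPLC-UV with a standard curve. Before that, compound (10 mM DMSO stock) in 50 mM PB at pH 7.4 was agitated 24 h at room temperature, then PTFE-filtered with centrifugation.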

T2 sequence (P10721 26-976): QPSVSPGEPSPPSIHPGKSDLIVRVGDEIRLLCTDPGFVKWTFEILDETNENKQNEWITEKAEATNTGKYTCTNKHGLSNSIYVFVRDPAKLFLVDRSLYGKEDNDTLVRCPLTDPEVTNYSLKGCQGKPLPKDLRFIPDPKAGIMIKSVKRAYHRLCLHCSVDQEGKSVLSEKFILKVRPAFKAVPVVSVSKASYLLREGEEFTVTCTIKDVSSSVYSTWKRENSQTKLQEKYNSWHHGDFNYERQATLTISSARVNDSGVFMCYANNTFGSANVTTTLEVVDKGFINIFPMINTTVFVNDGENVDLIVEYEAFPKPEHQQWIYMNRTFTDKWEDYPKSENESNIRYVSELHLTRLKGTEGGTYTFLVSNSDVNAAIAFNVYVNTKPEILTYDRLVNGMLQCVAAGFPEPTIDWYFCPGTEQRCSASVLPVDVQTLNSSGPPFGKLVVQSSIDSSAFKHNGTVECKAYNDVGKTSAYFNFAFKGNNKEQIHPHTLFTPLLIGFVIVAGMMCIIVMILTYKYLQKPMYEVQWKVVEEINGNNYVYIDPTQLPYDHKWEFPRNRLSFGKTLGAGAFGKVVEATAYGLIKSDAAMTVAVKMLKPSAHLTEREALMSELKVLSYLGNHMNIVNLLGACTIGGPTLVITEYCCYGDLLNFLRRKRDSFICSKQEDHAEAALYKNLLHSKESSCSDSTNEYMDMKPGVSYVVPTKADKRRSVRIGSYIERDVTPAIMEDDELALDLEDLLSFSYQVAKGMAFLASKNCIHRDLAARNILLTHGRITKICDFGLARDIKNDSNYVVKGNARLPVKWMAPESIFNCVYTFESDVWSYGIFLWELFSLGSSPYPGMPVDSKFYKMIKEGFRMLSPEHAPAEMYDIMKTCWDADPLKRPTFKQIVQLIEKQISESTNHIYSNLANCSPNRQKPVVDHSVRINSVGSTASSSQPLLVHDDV

Structure (SMILES)	MDCK-BCRP: Efflux Ratio [1]	MDCK-BCRP: Papp A-B [1]	IC50 (wtKIT) [nM]	Solubility (μM) (Kinetic solubility assay)
COC1(OC)CCC1c1nc(-c2ccc(C)c(NC(=O)c3cnc4ccccn34)c2)no1 (racemic) [Compound I-308]	1.13	16.3 10^−6 cm/s	≤ 50	*** (a solubility greater than 2 μM and less than or equal to 10 μM)
COC(=O)C1CC(c2nc(-c3ccc(C)c(NC(=O)c4cnc5ccccn45)c3)no2)C1 (stereo not shown) [Compound I-342]	0.47	30 10^−6 cm/s	≤ 50	*** (a solubility greater than 2 μM and less than or equal to 10 μM)
Cc1ccc(-c2noc(C3CC(O)(c4ccccc4)C3)n2)cc1NC(=O)c1cnc2ccccn12 (stereo not shown) [Compound I-349]	2.56	16.6 10^−6 cm/s	≤ 50	**** (a solubility less than or equal to 2 μM)
Cc1ccc(-c2noc(C3(C(F)F)CC(F)(F)C3)n2)cc1NC(=O)c1cnc2ccccn12 [Compound I-355]	0.91	12.3 10^−6 cm/s	≤ 50	**** (a solubility less than or equal to 2 μM)
CC(C)(C)OC(=O)N1CC(c2nc(-c3ccc(Br)c(NC(=O)c4cnc5ccccn45)c3)no2)C1 [Compound I-332]	1.75	2.63 10^−6 cm/s	50 to 500	**** (a solubility less than or equal to 2 μM)
COCC1(c2nc(-c3ccc(C)c(NC(=O)c4cnc5ccccn45)c3)no2)CC(F)(F)C1 [Compound I-378]	0.77	16 10^−6 cm/s	≤ 50	**** (a solubility less than or equal to 2 μM)
Cc1ccc(-c2noc(C3CCN(C(=O)OC(C)(C)C)C3)n2)cc1NC(=O)c1cnc2ccccn12 (racemic) [Compound I-399]	2.78	6.48 10^−6 cm/s	50 to 500	*** (a solubility greater than 2 μM and less than or equal to 10 μM)

The next lines start with results.

MDCK-BCRP: Efflux Ratio [1]	MDCK-BCRP: Papp A-B [1]	IC50 (wtKIT) [nM]	Structure (SMILES)	Solubility (μM) (Kinetic solubility assay)
2.83	8.04 10^−6 cm/s	≤ 50	Cc1ccc(-c2noc(C3CCCCO3)n2)cc1NC(=O)c1cnc2ccccn12 (racemic) [Compound I-397]	*** (a solubility greater than 2 μM and less than or equal to 10 μM)
1.33	40.1 10^−6 cm/s	≤ 50	COC1(OC)CC(c2nc(-c3ccc(C)c(NC(=O)c4cnc5ccccn45)c3)no2)C1 [Compound I-346]	*** (a solubility greater than 2 μM and less than or equal to 10 μM)
3.28	19 10^−6 cm/s	50 to 500	Cc1ccc(-c2noc(C3CCN3C(=O)OC(C)(C)C)n2)cc1NC(=O)c1cnc2ccccn12 (racemic) [Compound I-395]	** (a solubility greater than 10 μM and less than or equal to 50 μM)
12.1	2.13 10^−6 cm/s	≤ 50	Cc1ccc(-c2noc(C3CCCN3)n2)cc1NC(=O)c1cnc2ccccn12 (racemic) [Compound I-391]	* (a solubility greater than 50 μM)
11.6	0.31 10^−6 cm/s	50 to 500	Cc1ccc(-c2noc(C3CN(C(N)=O)C3)n2)cc1NC(=O)c1cnc2ccccn12 [Compound I-268]	* (a solubility greater than 50 μM)
1.56	11.4 10^−6 cm/s	≤ 50	Cc1ccc(-c2noc(C3(C)CC(F)C3)n2)cc1NC(=O)c1cnc2ccccn12 (stereo not shown) [Compound I-386]	**** (a solubility less than or equal to 2 μM)
